From ChEMBL document CHEMBL4334464, “From Phenylthiazoles to Phenylpyrazoles: Broadening the Antibacterial Spectrum toward Carbapenem-Resistant Bacteria” (J Med Chem, 2019)
Calls of active or inactive are those of the source.

Experiments:
Acinetobacter baumannii [1] = assay: Antibacterial activity against Acinetobacter baumannii ATCC 19606 clinical isolates after 18 to 20 hrs in aerobic condition by CLSI-based broth microdilution assay; assay type: functional; settings: ATCC 19606 = CIP 70.34 = JCM 6841
Pseudomonas aeruginosa [2] = assay: microbe, parasite or virus in culture; settings: ATCC 25619
Description: Antibacterial activity against Pseudomonas aeruginosa ATCC 25619 clinical isolates after 18 to 20 hrs in aerobic condition by CLSI-based broth microdilution assay

Staphylococcus aureus [3] = assay: Antibacterial activity against Methicillin-resistant Staphylococcus aureus USA700-NRS386 clinical isolates after 18 to 20 hrs in aerobic condition by CLSI protocol based broth microdilution assay; assay type: functional
Acinetobacter baumannii [4] = assay: Antibacterial activity against Acinetobacter baumannii ATCC BAA 1141 clinical isolates after 18 to 20 hrs in aerobic condition by CLSI-based broth microdilution assay; assay type: functional
Streptococcus pneumoniae [5] = assay: Antibacterial activity against methicillin-resistant Streptococcus pneumoniae ATCC 700677 clinical isolates after 18 to 20 hrs by CLSI-based broth microdilution assay; assay type: functional
Escherichia coli [6] = assay: Antibacterial activity against carbapenem-resistant Escherichia coli BAA-2469 clinical isolates after 18 to 20 hrs in aerobic condition by CLSI-based broth microdilution assay; assay type: functional
[7] = tested on: Enterobacter cloacae subsp. cloacae; assay: Ratio of MBC to MIC for Enterobacter cloacae subsp. cloacae ATCC BAA-1143 clinical isolates; assay type: functional
Escherichia coli [8] = assay: Ratio of MBC to MIC for Escherichia coli ATCC 1411 clinical isolates; assay type: functional
Salmonella typhimurium [9] = assay: Antibacterial activity against Salmonella typhimurium ATCC 700720 after 18 to 20 hrs in aerobic condition by CLSI-based broth microdilution assay; assay type: functional, Salmonella enterica subsp. enterica serovar Typhimurium; settings: Salmonella enterica
Listeria monocytogenes [10] = assay: Antibacterial activity against Listeria monocytogenes ATCC 19111 after 18 to 20 hrs in aerobic condition by CLSI-based broth microdilution assay; assay type: functional
Staphylococcus aureus [11] = assay: Ratio of MBC to MIC for Methicillin-sensitive Staphylococcus aureus NRS107 clinical isolates; assay type: functional
Salmonella enteritidis = assay: Ratio of MBC to MIC for Salmonella enteritidis ATCC 13076 clinical isolates; assay type: functional, Salmonella enterica subsp. enterica serovar Enteritidis
[12] = molecular target: T1, Ditrans,polycis-undecaprenyl-diphosphate synthase ((2E,6E)-farnesyl-diphosphate specific) (Escherichia coli (strain K12)) (UniProt P60472); assay: Inhibition of Escherichia coli UPPS using FPP/IPP as substrate preincubated for 30 mins followed by substrates addition and measured after 30 mins by malachite green reagent based assay
T1 sequence (whole entry): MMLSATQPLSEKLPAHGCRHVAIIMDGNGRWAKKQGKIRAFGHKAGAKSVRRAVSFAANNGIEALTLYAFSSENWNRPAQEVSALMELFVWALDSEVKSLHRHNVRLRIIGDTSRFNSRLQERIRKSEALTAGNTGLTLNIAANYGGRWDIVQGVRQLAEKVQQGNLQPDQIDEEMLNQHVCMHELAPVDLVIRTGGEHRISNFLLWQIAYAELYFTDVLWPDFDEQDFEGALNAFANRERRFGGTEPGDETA

Pseudomonas aeruginosa [13] = assay: Antibacterial activity against carbapenem-resistant Pseudomonas aeruginosa ATCC 1744 clinical isolates after 18 to 20 hrs in aerobic condition by CLSI-based broth microdilution assay; assay type: functional
Acinetobacter baumannii [14] = assay: Ratio of MBC to MIC for Acinetobacter baumannii ATCC 19606 clinical isolates; assay type: functional, ATCC 19606 = CIP 70.34 = JCM 6841
[15] = Antibacterial activity against Enterobacter cloacae subsp. cloacae ATCC BAA-1143 clinical isolates after 18 to 20 hrs in aerobic condition by CLSI-based broth microdilution assay; assay type: functional
Shigella flexneri [16] = assay: Ratio of MBC to MIC for Shigella flexneri ATCC 9199 clinical isolates; assay type: functional
Clostridioides difficile = assay: Ratio of MBC to MIC for Clostridium difficile ATCC BAA 1870; assay type: functional
Enterococcus faecalis = assay: Antibacterial activity against vancomycin-resistant Enterococcus faecalis ATCC 51299 clinical isolates after 18 to 20 hrs in aerobic condition by CLSI-based broth microdilution assay; assay type: functional
Pseudomonas aeruginosa [17] = assay: Ratio of MBC to MIC for Pseudomonas aeruginosa ATCC 9027 clinical isolates; assay type: functional
Klebsiella pneumoniae [18] = assay: Ratio of MBC to MIC for Klebsiella pneumoniae BAA-1706 after 18 to 20 hrs in aerobic condition by CLSI-based broth microdilution assay; assay type: functional
Streptococcus pneumoniae [19] = assay: Ratio of MBC to MIC for cephalosporin-resistant Streptococcus pneumoniae ATCC 51916 clinical isolates; assay type: functional
Escherichia coli [20] = assay: Ratio of MBC to MIC for Escherichia coli ATCC 25922 clinical isolates; assay type: functional
Staphylococcus aureus [21] = assay: Antibacterial activity against Methicillin-sensitive Staphylococcus aureus ATCC 6538 clinical isolates after 18 to 20 hrs in aerobic condition by CLSI protocol based broth microdilution assay; assay type: functional
Salmonella typhimurium [22] = assay: Ratio of MBC to MIC for Salmonella typhimurium ATCC 700720 clinical isolates; assay type: functional, Salmonella enterica subsp. enterica serovar Typhimurium
Staphylococcus aureus [23] = assay: Antibacterial activity against methicillin-resistant Staphylococcus aureus NRS384-USA300 clinical isolates after 18 to 20 hrs in aerobic condition by CLSI protocol based broth microdilution assay; assay type: functional
Staphylococcus aureus [24] = assay: Ratio of MBC to MIC for Methicillin-sensitive Staphylococcus aureus ATCC 6538 clinical isolates; assay type: functional
Acinetobacter baumannii [25] = assay: Ratio of MBC to MIC for Acinetobacter baumannii NR 17785 clinical isolates; assay type: functional
Listeria monocytogenes [26] = assay: Ratio of MBC to MIC for Listeria monocytogenes ATCC 19111 clinical isolates; assay type: functional
Enterococcus faecium = assay: Ratio of MBC to MIC for vancomycin-resistant Enterococcus faecium ATCC 700221 clinical isolates; assay type: functional
Klebsiella pneumoniae [27] = assay: Ratio of MBC to MIC for Klebsiella pneumoniae BAA-1144 clinical isolates; assay type: functional
Escherichia coli [28] = assay: Antibacterial activity against Escherichia coli ATCC 35150 clinical isolates after 18 to 20 hrs in aerobic condition by CLSI-based broth microdilution assay; assay type: functional
Acinetobacter baumannii [29] = assay: Ratio of MBC to MIC for Acinetobacter baumannii NR 17786 clinical isolates; assay type: functional
Escherichia coli [30] = assay: Antibacterial activity against carbapenem-resistant Escherichia coli BAA-2452 clinical isolates after 18 to 20 hrs in aerobic condition by CLSI-based broth microdilution assay; assay type: functional
Acinetobacter baumannii [31] = assay: Antibacterial activity against Acinetobacter baumannii NR 17785 clinical isolates after 18 to 20 hrs in aerobic condition by CLSI-based broth microdilution assay; assay type: functional
Shigella flexneri [32] = assay: Antibacterial activity against Shigella flexneri ATCC 9199 clinical isolates after 18 to 20 hrs in aerobic condition by CLSI-based broth microdilution assay; assay type: functional
[33] = tested on: Staphylococcus epidermidis; assay: Antibacterial activity against Staphylococcus epidermidis NRS101 after 18 to 20 hrs in aerobic condition by CLSI-based broth microdilution assay; assay type: functional
Salmonella enterica = assay: Ratio of MBC to MIC for Salmonella enterica NR-170 clinical isolates; assay type: functional
Pseudomonas aeruginosa [34] = assay: Ratio of MBC to MIC for Pseudomonas aeruginosa ATCC 15442 clinical isolates; assay type: functional
Streptococcus pneumoniae [35] = assay: Antibacterial activity against cephalosporin-resistant Streptococcus pneumoniae ATCC 51916 clinical isolates after 18 to 20 hrs by CLSI-based broth microdilution assay; assay type: functional
Escherichia coli [36] = assay: Inhibition of 6His tagged Escherichia coli UPPP expressed in Escherichia coli C41(DE3) cells preincubated for 15 mins followed by FPP substrate addition and measured after 20 mins by malachite green reagent based assay

C/C(=N\NC(=N)N)c1cnn(-c2ccc(C#CC3CCCC3)cc2)c1C
> 1: Ratio [7]
16 µg/mL: MIC (Pseudomonas aeruginosa [2]) | MIC (Pseudomonas aeruginosa [13])
inactive: inhibition [12] | inhibition (Escherichia coli [36])
1 µg/mL: MIC (Staphylococcus aureus [3]) | MIC (Staphylococcus aureus [23]) | MIC [33] | MIC (Streptococcus pneumoniae [35])
>=1: Ratio (Escherichia coli [8]) | Ratio (Salmonella enteritidis) | Ratio (Acinetobacter baumannii [14]) | Ratio (Shigella flexneri [16]) | Ratio (Pseudomonas aeruginosa [17]) | Ratio (Klebsiella pneumoniae [18]) | Ratio (Escherichia coli [20]) | Ratio (Salmonella typhimurium [22]) | Ratio (Acinetobacter baumannii [25]) | Ratio (Klebsiella pneumoniae [27]) | Ratio (Acinetobacter baumannii [29]) | Ratio (Salmonella enterica) | Ratio (Pseudomonas aeruginosa [34])
4 µg/mL: MIC (Acinetobacter baumannii [1]) | MIC (Acinetobacter baumannii [4]) | MIC (Escherichia coli [6]) | MIC (Escherichia coli [28]) | MIC (Escherichia coli [30]) | MIC (Acinetobacter baumannii [31])
8 µg/mL: MIC (Salmonella typhimurium [9]) | MIC [15] | MIC (Shigella flexneri [32])
<=2: Ratio (Staphylococcus aureus [11]) | Ratio (Staphylococcus aureus [24])
0.5 µg/mL: MIC (Streptococcus pneumoniae [5]) | MIC (Listeria monocytogenes [10]) | MIC (Enterococcus faecalis) | MIC (Staphylococcus aureus [21])
<3: Ratio (Clostridioides difficile) | Ratio (Streptococcus pneumoniae [19]) | Ratio (Listeria monocytogenes [26]) | Ratio (Enterococcus faecium)

C/C(=N\NC(=N)N)c1cnn(-c2ccc(C#CC3(O)CCCCC3)cc2)c1C
>=1: Ratio (Escherichia coli [8]) | Ratio (Salmonella enteritidis) | Ratio (Acinetobacter baumannii [14]) | Ratio (Shigella flexneri [16]) | Ratio (Pseudomonas aeruginosa [17]) | Ratio (Klebsiella pneumoniae [18]) | Ratio (Escherichia coli [20]) | Ratio (Salmonella typhimurium [22]) | Ratio (Acinetobacter baumannii [25]) | Ratio (Klebsiella pneumoniae [27]) | Ratio (Acinetobacter baumannii [29]) | Ratio (Salmonella enterica) | Ratio (Pseudomonas aeruginosa [34])
8 µg/mL: MIC (Acinetobacter baumannii [4]) | MIC (Acinetobacter baumannii [31])
4 µg/mL: MIC (Acinetobacter baumannii [1]) | MIC [33] | MIC (Streptococcus pneumoniae [35])
<=2: Ratio (Staphylococcus aureus [11]) | Ratio (Staphylococcus aureus [24])
32 µg/mL: MIC (Pseudomonas aeruginosa [2])
64 µg/mL: MIC (Escherichia coli [6]) | MIC (Salmonella typhimurium [9]) | MIC (Pseudomonas aeruginosa [13]) | MIC (Escherichia coli [30])
16 µg/mL: MIC [15] | MIC (Escherichia coli [28]) | MIC (Shigella flexneri [32])
<3: Ratio (Clostridioides difficile) | Ratio (Streptococcus pneumoniae [19]) | Ratio (Listeria monocytogenes [26]) | Ratio (Enterococcus faecium)
2 µg/mL: MIC (Staphylococcus aureus [3]) | MIC (Streptococcus pneumoniae [5]) | MIC (Listeria monocytogenes [10]) | MIC (Enterococcus faecalis) | MIC (Staphylococcus aureus [21]) | MIC (Staphylococcus aureus [23])
> 1: Ratio [7]

CCCCCC#Cc1ccc(-n2ncc(/C(C)=N/NC3=NCCN3)c2C)cc1
8 µg/mL: MIC (Acinetobacter baumannii [1])
> 128 µg/mL: MIC (Pseudomonas aeruginosa [2]) | MIC (Acinetobacter baumannii [4]) | MIC (Salmonella typhimurium [9]) | MIC [15] | MIC (Escherichia coli [28]) | MIC (Acinetobacter baumannii [31]) | MIC (Shigella flexneri [32])
<=2: Ratio (Staphylococcus aureus [11]) | Ratio (Staphylococcus aureus [24])
> 1: Ratio [7]
inactive: inhibition [12] | inhibition (Escherichia coli [36])
>=1: Ratio (Escherichia coli [8]) | Ratio (Salmonella enteritidis) | Ratio (Acinetobacter baumannii [14]) | Ratio (Shigella flexneri [16]) | Ratio (Pseudomonas aeruginosa [17]) | Ratio (Klebsiella pneumoniae [18]) | Ratio (Escherichia coli [20]) | Ratio (Salmonella typhimurium [22]) | Ratio (Acinetobacter baumannii [25]) | Ratio (Klebsiella pneumoniae [27]) | Ratio (Acinetobacter baumannii [29]) | Ratio (Salmonella enterica) | Ratio (Pseudomonas aeruginosa [34])
2 µg/mL: MIC (Staphylococcus aureus [3]) | MIC (Streptococcus pneumoniae [5]) | MIC (Listeria monocytogenes [10]) | MIC (Staphylococcus aureus [21]) | MIC (Staphylococcus aureus [23]) | MIC [33]
4 µg/mL: MIC (Enterococcus faecalis) | MIC (Streptococcus pneumoniae [35])
<3: Ratio (Clostridioides difficile) | Ratio (Streptococcus pneumoniae [19]) | Ratio (Listeria monocytogenes [26]) | Ratio (Enterococcus faecium)
